Assay results as given in patent US10251943B2, “PLIF multimeric peptides and uses thereof” (Ramot at Tel-Aviv University Ltd., priority 2012, dated 2019).
Entries after “also recorded” stand apart in the source; their conditions may differ. Bridges are numbered along the chain shown (N, C = ends). Roman numbers before positions name the chains, in order. Where no end group is shown, it is not given here.

Tests used:
human T cells (HDMAR) = assay: Binding to HDMAR human T cell line (detected by anti-C24D IgG); format: cell-based
[1] = tested on: C48 receptor on human T cells; assay: Inhibition of C48 binding to HDMAR human T cells (detected by anti-C48 IgG-FITC); format: cell-based; details: pre-incubation of HDMAR T cells with different concentrations
[2] = tested on: human PBMC activated with OKT3 MoAb; assay: Cell stimulation and cytokine production (ELISA of supernatants); format: cell-based; details: for Level of INF-γ: vs control cultures; for Level of IL-10: vs control cells
Description: Peripheral blood mononuclear cells (PBMC) at 2×10^6 in 1 ml of 5% human serum/RPMI-1640 were cultured in a 10 ml round-bottom tube, treated with C48 (2 μg/ml), C24D (10 μg/ml), or non-treated. Subsequently, these cultures were stimulated with OKT3 MoAb (100 ng/ml) or non-stimulated. Supernatants were collected at 24, and 72 hours for analysis of IL-10 and other cytokines as indicated in each experiment.
The ELISA kits for the human cytokines TNF-α, IL-10 and IFN-γ were purchased from DPC, and R&D Systems, USA. These kits were used to quantify the indicated cytokines production in the supernatants, according to the manufacturer's instructions.
(§1) Buffy coats from blood bank donors were layered onto Lymphoprep solution (Nycomed, Oslo, Norway) and spun at 2000 rpm for 20 minutes. The interface layer was collected, washed twice, counted, and resuspended in PBS; pH 7.4 to the desired cell concentration.

[3] = tested on: MCF-7 human breast cancer cells; assay: MCF-7 and PBMC co-culture in vitro; format: cell-based
Description: The MCF-7 human breast carcinoma cell line was maintained in monolayer cultures in RPMI-1640 medium supplemented with 10% fetal calf serum. For passages, confluent monolayer cultures were trypsinized with trypsin/EDTA solution (0.25%/0.05%, respectively), washed once, and seeded in culture medium.
as §1
MCF-7 was maintained in RPMI+fetal calf serum (FCS) 10%. 1 day before the experimental start, the medium was replaced with RPMI+human AB serum 10%. PBMC (1×10^6) were added to MCF-7 (0.1×10^6) at a final volume of 1 ml dispensed into 24-well plates. The cells were treated with C24D 30 μg/ml at 0, 24 and 48 hours. The cells without treatment were used as a control. Plates were washed, fixed for 1 hour with 4% formaldehyde solution and stained with Giemsa for microscopic evaluation on experimental days 1, 5, and 8.
PBMC were removed from the following cell cultures: a) non-treated control MCF-7+PBMC, b) control (only PBMC cultured with C24D), and c) C24D-treated MCF-7+PBMC. All were transferred to new untreated MCF-7 cell monolayer cultures.

[4] = tested on: MCF-7 human breast cancer cells; assay: MCF-7 tumor development in nude mice transfused with human PBMC; format: in vivo, Athymic BALB/c nude mice
Description: Athymic BALB/c nude mice were purchased from Harlan Laboratories Ltd. Mice were inoculated subcutaneously (s.c.) with MCF-7 human breast cancer cells (6×10^6), in the presence of an estrogen source (0.72 mg). The slow-release pellets (60-day release) were implanted s.c. into the cervical scapular space.
as §1, with “PBS (pH 7.4)” for “PBS; pH 7.4”, “concentration. Human PBMC (50×10^6/0.5 ml) were injected intravenously after transplantation of MCF-7 tumor cells as described above.” for “concentration.”
In each experiment, mice were divided into groups of five. C24D dissolved in PBS pH 7.2 was injected i.p. to each mouse daily, at an optimal dose of 60 μg/0.2 ml. Control mice received daily injections of PBS.
Tumors were excised, measured, and fixed in phosphate-buffer formalin (pH 7.0) from which paraffin embedded blocks were prepared.
Four-micron tissue sections were cut from paraffin-embedded blocks and mounted on coated super frost plus slides. They were deparaffinized in xylene, and rehydrated with graded alcohols, rinsed in H2O, and then incubated in 3% H2O2 for 10 minutes and washed in H2O.
For antigen unmasking, the sections were heated in 10 mM of sodium citrate buffer (pH 6.0) for 10 minutes in microwaves or pressure chambers, depending on the manufacturer's instructions, and then cooled at room temperature for 20 minutes. Slides were washed in H2O and in PBS buffer for 5 minutes.
Slides were incubated in normal serum for 10 minutes from a kit (Zymed Laboratories, San Francisco, Calif.). For immunohistochemical staining, performed manually, slides were incubated with primary antibodies at previously determined optimal concentrations, for 60 minutes at room temperature, as summarized in Table 4, herein below.
Slides were washed in H2O and in PBS buffer for 5 minutes and further incubated for 10 minutes with a biothylated second antibody (Zymed Laboratories, San Francisco, Calif.), followed by PBS. […]

T47D cells = assay: T47D and PBMC co-culture in vitro; format: cell-based, human
Description: Human ductal breast epithelial tumor cell line (T47D) was maintained in RPMI-1640 medium supplemented with 10% fetal calf serum.
as §1
T47D was maintained in RPMI+FCS 10%. 1 day before the start of the experiment, the medium was replaced with RPMI+AB human serum 10%. PBMCs (1×10^6) were added to T47D (0.1×10^6) at a final volume 1 ml into 24-well plates. The cells were treated with C24D (30 μg/ml) at 0, 24 and 48 hours. The cells without treatment were used as a control. Plates were washed, fixed for 1 hour with 4% formaldehyde solution and stained with Giemsa for microscopic evaluation on experimental days 1, 5, and 8.
After five days of primary culture with T47D and C24D, PBMCs (1 million) were added to fresh T47D (0.1 million) at a final volume 1 ml into 24-well plates. The cells were treated with C24D (30 μg/ml) at 0, 24 and 48 hours. After 4 days of culture, the cells were examined. […] The ratio between T47D and PBMCs was 1:10. Two days after incubation the cells were examined as illustrated in FIGS. 20A-B.

human macrophages = assay: Binding to the surface of human macrophages (FITC-labelled antibody detection); format: cell-based; details: detected by mouse anti-C24D IgG-FITC and rabbit anti-C48 IgG-FITC
pregnancy development = details: vaccination of mice prior to mating; cited from earlier work

Substance | Binding to the surface of human T cells (HDMAR) (human T cells (HDMAR)) | Inhibition of the binding of C48 to T cells [1] | Level of INF-γ in the presence of C48 ([2]; 72 hours, together with C48) | Level of INF-γ ([2]; 72 hours) | Level of IL-10 when added together with C48 ([2]; culture together with C48) | Level of IL-10 [2] | MCF-7 cell monolayer lysis (Giemsa staining) ([3]; MCF7 incubated with PBMC for 5 days) | Lysis of MCF-7 cancer cells ([3]; MCF-7 and PBMC (1:10) cultured 8 days at 37° C., C24D 30 μg/ml) | Cytotoxic effect and growth inhibition of MCF-7 cells ([3]; MCF-7 cultured with human PBMC for 5-8 days) | Cytotoxicity of transferred PBMC on secondary untreated MCF-7 culture ([3]; PBMC removed from C24D-treated MCF-7+PBMC cultures) | Tumor growth ([4]; Nude mice transfused with human lymphocytes and engrafted with MCF-7, vs PBS) | Mean tumor volume ([4]; after 19 days, daily i.p. 60 μg, nude mice with MCF-7 and human PBMC) | Tumoral necrosis (histochemical analysis) ([4]; tumors removed from treated mice vs control) | T47D tumor cell lysis (T47D cells; 7 days of incubation with C24D and PBMCs) | Cytotoxicity on secondary T47D culture (T47D cells; PBMCs from 5-day primary culture added to fresh T47D, C24D 30 μg/ml, 4 days) | Lysis of T47D cancer cells (T47D cells; T47D and PBMC (1:10) cultured 5 days at 37° C.) | Binding to the surface of human macrophages (human macrophages) | Pregnancy development (pregnancy development)
C24D: covalently linked dimer of identical polypeptide chains, each SEQ ID NO: 1 plus N-terminal Cysteine and Glycine; SEQ ID NO: 102 (chain 1 CGHHLLRPRRRKRPHSIPTPILIFRSP; chain 2 CGHHLLRPRRRKRPHSIPTPILIFRSP; disulfide I:1-II:1) | bind similarly to the surface of human T cells; also recorded: binds to the surface of human T cells | inhibits the binding of C48 to T cells | increased significantly | increased significantly; also recorded: high levels of INF-γ | decreased the high level of IL-10 | did not increase the level of IL-10 | monolayer lysis | resulted in lysis of the cancer cells | cytotoxic effect and tumor cell growth inhibition | cytotoxic to the tumor cells | inhibited significantly the tumor growth; also recorded: tumor growth inhibition and cytotoxicity | 42.5±14 mm^3 | Large areas of tumoral necrosis | An increase in tumor cell lysis | cytotoxic effect | resulted in lysis of the cancer cells |  | 
C48: subcloned recombinant C-terminal 48 amino acids of PLIF, its bioactive domain (SEQ ID NO: 100) (FPSPISPSPSCWHHYTTNRPQPQHHLLRPRRRKRPHSIPTPILIFRSP; Placental Immunoregulatory Ferritin (PLIF), C′, derived peptide C48) | bind similarly to the surface of human T cells |  |  | did not affect the INF-γ level; also recorded: no INF-γ |  | high level of IL-10; also recorded: high IL-10 levels |  |  |  |  |  |  |  |  |  |  | binds to the surface of human macrophages | prevented pregnancy development
C24-48M: monomeric synthetic polypeptide comprising the C48 terminal amino acids (aa) 24-48 (HHLLRPRRRKRPHSIPTPILIFRSP) [reference compound] | does not |  |  |  |  |  |  |  |  |  |  |  |  |  |  |  |  | 
